The test system of data set [1] is Chinese hamster V79 lung fibroblasts. Description: V79 clonogenic survival, hypoxanthine/xanthine oxidase (HX/XO) cytotoxicity. Particulars: 1 mM. The procedure:
Chinese hamster V79 lung fibroblasts were cultured in F12 medium supplemented with 10% fetal calf serum and antibiotics. Cell survival was assessed by clonogenic assay with 85-95% plating efficiency. Stock cultures of exponentially growing cells were trypsinized, rinsed, and plated (7×10^5 cells/dish) into a number of 100 cm^2 petri dishes and incubated 16 hr at 37° C. prior to experimental protocols.
It has been shown that exposure of V79 cells to hydrogen peroxide results in dose-dependent cytotoxicity (Mitchell et al., supra).
HX and XO were purchased from Boehringer Co. (Indianapolis, Ind.). Nitrite, diethylamine, sulfinamide, diethylenetriaminepentaacetic acid (DETAPAC) and N-(1-naphthyl)ethylenediaminedihydrogenchloride (NEDD) were purchased from Aldrich (Milwaukee, Wis.). Cytosine-β-D-arabinofuranoside and ferricytochrome c were purchased from Sigma (St. Louis, Mo.). DEA/NO and SPER/NO were synthesized as previously described (Maragos et al., (1991), supra).
Exponentially growing cultures of Chinese hamster V79 fibroblasts were exposed to either HX/XO (final concentration of HX was 0.5 mM; 0.08 units/ml XO were used) for various amounts of time (FIG. 1A) or to various concentrations of hydrogen peroxide for one hour (FIG. 1B). […] Additionally, 1 mM DEA/NO was added to medium in the absence of cells, incubated at 37° C. for 1 hr or 16 hrs, and then added just prior to the addition of hydrogen peroxide to evaluate the effects of DEA/NO which had released NO. After treatment, cell monolayers were rinsed twice with phosphate-buffered saline (PBS), trypsinized, counted and plated in triplicate for macroscopic colony formation. Each dose determination was plated in triplicate and experiments were repeated a minimum of two times. Plates were incubated for 7 days, after which colonies were fixed with methanol/acetic acid (3:1), stained with crystal violet, and counted. Colonies containing more than 50 cells were scored.

Another data set concerns rat mesenteric venules. Description: Venular diameter, RBC velocity and wall shear rate after ischemia reperfusion. In kind it is in vivo. To be noted: 100 μM in superfusate. The procedure:
(§1) Male Sprague-Dawley rats weighing 200-250 g apiece were maintained on a purified laboratory diet and fasted for 24 hours prior to each experiment. The animals were initially anesthetized with pentobarbital (65 mg/kg body weight) and then a tracheotomy was performed to facilitate breathing during subsequent experimentation. The right carotid artery was cannulated and system arterial pressure was measured with a Statham P23A pressure transducer (Oxnard, Calif.) connected to the carotid artery cannula. Systemic blood pressure and heart rate were continuously recorder with a Grass physiologic recorded (Grass Instruments).
(§2) Rats were placed in a supine position on an adjustable plexiglass microscope stage and the mesentery was prepared for microscopic observation as described previously (Asako et al., Gastroenterology, 103, 146-152 (1992); Kurose et al., Circ. Res., in press (1993)). Briefly, the mesentery was draped over a non-fluorescent coverslip that allowed for observation of a 2 cm^2 segment of tissue. The exposed bowel wall was covered with Saran Wrap (Dow Chemical Co.) and the mesentery was superfused with bicarbonate-buffered saline (pH 7.4, 37° C.) that was bubbled with a mixture of 5% CO2 and […].
(§3) An inverted microscope (TMD-25, Diaphoto, Nikon, Tokyo, Japan) with a 40x objective lens (Fluor, Nikon) was used to observe the mesenteric microcirculation. The mesentery was transilluminated with a 12 V-100 W direct current-stabilized light source. A video camera (VK-C150, Hitachi, Ibaragi, Japan) mounted on the microscope projected the image onto a color monitor (PVM-2030, Sony, Tokyo, Japan) and the images were recorded using a videocassette record (NV8950, Panasonic, Tokyo, Japan). A video time-date generator (WJ810, Panasonic) projected the time, date and stopwatch function onto the monitor.
(§4) Single unbranched venules with diameters ranging between 25 and 35 μm and length greater than 150 μm were selected for study. Venular diameter (DV) was measured either on- or off-line using a video caliper (Microcirculation Research Institute, Texas A&M University, College Station, Tex.). Red blood cell centerline velocity (VRBC) was measured in venules using an optical Dopper velocimeter (Microcirculation Research Institute, Texas A&M University, College Station, Tex.). The velocimeter was calibrated against a rotating glass disk coated with red blood cells. Venular blood flow was calculated from the product of mean red blood cell velocity (Vmean =centerline velocity/1.6; Davis, Microvasc. Res., 34, 223-230 (1987)) and microvascular cross-sectional area, assuming cylindrical geometry. Wall shear rate (γ) was calculated based on the Newtonian definition γ=8(Vmean /D).
After all parameters measured on-line were in a steady state, images from the mesenteric preparation were recorded on videotape for 10 min. […] The mesentery was made ischemic for zero (sham ischemia) or 20 min. After the ischemic period, the ligation was gently removed. In some experiments, either sodium nitroprusside (SNP, 100 μM, Sigma Chemical), spermine-NO (SpNO, 100 μM), SIN-1 (100 μM), spermine (SP, 100 μM, Sigma Chemical), or NG-nitro-L-arginine methyl ester (L-NAME, 100 μM, Sigma Chemical) was added to the superfusate and the same protocol was employed. Spermine-NO and SIN-1, which are NO donors, were obtained from the National Institutes of Health, Bethesda, Md. […]

A further data set relates to leukocytes. The data set is described as follows: Leukocyte adherence and emigration after ischemia reperfusion (mesenteric venules). In kind it is in vivo, rat. To be noted: 20 min ischemia, 10 and 30 min reperfusion; 100 μM; FIG. 4B. On the procedure:
as §1, §2, §3, §4
The number of adherent leukocytes was determined off-line during playback of videotape images. A leukocyte was considered to be adherent to venular endothelium if it remained stationary for a period equal to or greater than 30 seconds (Granger et al., Am. J. Physiol., 257, G683-G688 (1989)). Adherent cells were expressed as the number per 100 μm length of venule. The number of emigrated leukocytes was also determined off-line during playback of videotape images. Any interstitial leukocytes present in the mesentery at the onset of the experiment were subtracted from the total number of leukocytes that accumulated during the course of the experiment. Leukocyte emigration was expressed as the number per field of view surrounding the venule. Platelet-leukocyte aggregates, which were visible within postcapillary venules, were quantitated and expressed as the number of aggregates crossing a fixed point within the venule over a 5 min period. Mast cells in the microvascular beds of the rat mesenteries were visualized by using 0.1% toluidine blue. The number of normal and degranulated mast cells was determined and the percentage of degranulated mast cells was calculated.

In another data set the test system is mesenteric venules. The data set is described as follows: Albumin leakage across mesenteric venules after ischemia reperfusion. In kind it is in vivo, rat. Particulars: 10 min and 30 min after reperfusion; 100 μM; FIG. 4C. The procedure:
as §1, §2, §3
as §4, with “The velocimeter was calibrated against a rotating glass disk coated with red blood cells.” left out
After all parameters measured on-line were in a steady state, images from the mesenteric preparation were recorded on videotape for 10 min. […]

For data set [2], the system named is platelet-leukocyte aggregates. The data set is described as follows: Platelet-leukocyte aggregates after ischemia reperfusion. To be noted: 20 min ischemia, 30 min reperfusion; 100 μM; FIG. 6. In kind it is in vivo, rat. On the procedure: as §1, with “Instruments). […]” for “Instruments).”
(§5) An inverted microscope (TMD-25, Diaphoto, Nikon, Tokyo, Japan) with a 40x objective lens (Fluor, Nikon) was used to observe the mesenteric microcirculation. […] A video camera (VK-C150, Hitachi, Ibaragi, Japan) mounted on the microscope projected the image onto a color monitor (PVM-2030, Sony, Tokyo, Japan) and the images were recorded using a videocassette record (NV8950, Panasonic, Tokyo, Japan). […]
Single unbranched venules with diameters ranging between 25 and 35 μm and length greater than 150 μm were selected for study. Venular diameter (DV) was measured either on- or off-line using a video caliper (Microcirculation Research Institute, Texas A&M University, College Station, Tex.). […] Wall shear rate (γ) was calculated based on the Newtonian definition γ=8(Vmean /D). […]

In a further data set the test system is mast cells. Description: Degranulation of microvascular mast cells after ischemia reperfusion. Particulars: 20 min ischemia, 30 min reperfusion; 100 μM; FIG. 7. In kind it is in vivo, rat. On the procedure: as §1, §2, §5
as §4, with “The velocimeter was calibrated against a rotating glass disk coated with red blood cells.” left out
The number of adherent leukocytes was determined off-line during playback of videotape images. […] Adherent cells were expressed as the number per 100 μm length of venule. The number of emigrated leukocytes was also determined off-line during playback of videotape images. […] Leukocyte emigration was expressed as the number per field of view surrounding the venule. […]

For a further data set, the system named is intestinal mucosa. The data set is described as follows: Intestinal blood to lumen 51Cr-EDTA clearance (mucosal permeability) in cat small intestine transplant. In kind it is in vivo, cats.
The subject of a further data set is small intestine. The data set is described as follows: Water absorption in cat small intestine transplant. It counts as in vivo, cats. To be noted: during 120 min of reperfusion; 0.1 mmol; vs untreated; FIG. 10.
In data set [3] the test system is microvasculature. The data set is described as follows: Lymph flow and lymph protein clearance in cat small intestine transplant. In kind it is in vivo, cats.
The test system of data set [4] is microvasculature. Description: Capillary pressure and vascular resistance in cat small intestine transplant. To be noted: FIG. 13. In kind it is in vivo, cats.
The nature of data set [5]: NO release rate / half-life. Particulars: vs DEA/NO. In kind it is physicochemical.

SMILES strings stand for the structures.

As to `NCCCNCCCCN(CCCN)/[N+]([O-])=N/O` [SpNO, spermine-NO], the “protection against HX/XO-induced cell killing” value in data set [1] is listed as “protected V79 cells against HX/XO induced cytotoxicity but to a lesser extent than DEA/NO”. In the data set with rat mesenteric venules (in words), the “reversal of decrease in RBC velocity after reperfusion” value is “reversed the decreases” and the “reversal of decrease in wall shear rate after reperfusion” value is listed as “reversed the decreases”. In addition, in the data set on rat mesenteric venules (30 min after reperfusion), the RBC velocity was found to be 3.06 ± 0.28 mm/sec, the Venular diameter was found to be 31.8 ± 2.1 μm and the Wall Shear Rate stood at 480 ± 27 s⁻¹. Besides, in the data set on leukocytes, the “reduction of number of emigrated leukocytes” value is listed as 64-71%. In the data set with mesenteric venules, the “attenuation of albumin leakage” value amounted to 70%. Moreover, in data set [2], the platelet-leukocyte aggregate formation entry was “reduced”. Besides, the “degranulation of microvascular mast cells” value in the data set with mast cells is recorded as “significantly inhibited”. Moreover, the “mucosal permeability (51Cr-EDTA clearance)” value in the data set with intestinal mucosa (6-hr hypothermic ischemia, 120 min reperfusion, FIG. 9) is on record as “decreased”. Further, the 51Cr-EDTA clearance result in the data set with intestinal mucosa (at 75 and 90 min, 0.1 mmol luminal perfusate) was “statistically significant decrease”. Besides, the water absorption entry with small intestine is given as “increased significantly”. For the same molecule, the lymph flow result in the data set on microvasculature [3] (FIG. 11) is listed as “Increased lymph flow”. Moreover, the lymph protein clearance result in the data set on microvasculature [3] (FIG. 12) is reported as “increased lymph protein clearance”. Moreover, the capillary pressure result in the data set with microvasculature [4] was “Significant elevation”. Further, the “NO release, times slower than DEA/NO” value in data set [5] stood at 40 times.

Source of the values: patent US5789447A, “Nitric oxide releasing compounds as protective agents in ischemia reperfusion injury” (priority 1995, dated 1998).
